From US20180171411A1, “GFRalpha1 AS A BIOMARKER FOR CISPLATIN-INDUCED CHEMORESISTANCE AND METASTASIS” (THE BOARD OF REGENTS OF THE UNIVERSITY OF TEXAS SYSTEM, priority 2015, published 2018)

System: Src/AMPK signaling in MG-63 cells
Test: Immunoblot of Src/AMPK/mTOR signaling
Format: cell-based, human
Conditions: cisplatin 20 μM, 24 hr
Method: FIG. 4. GFRα1 regulates autophagy by Src/AMPK signaling in osteosarcoma cells. (a-b) Immunoblot analysis of osteosarcoma cell lysates with antibodies specific for GFRα1, p-Src, Src, p-AMPK, AMPK, p-mTOR, mTOR, p-p70 S6Kinase, Beclin 1, HMGB1, LC3, and β-actin. (a) MG-63 and cells were treated with cisplatin (20 μM) for 24 hr. (b) Control and GFRα1-deficient MG-63 cells were treated with cisplatin (20 μM) for 24 hr. (c-e) Immunoblot analysis of osteosarcoma cell lysates with antibodies specific for GFRα1, p-Src, Src, p-AMPK, AMPK, LC3, and β-actin. (c) Control and Src-deficient MG-63 cells were treated with cisplatin (20 μM) for 24 hr. (d) MG-63 cells were cultured in the presence or absence of PP1 (5 μM) and then treated with cisplatin (20 μM) for 24 hr. (e) MG-63 cells were cultured in the presence or absence of Compound C and then treated with cisplatin (20 μM) for 24 hr. (f) Cell viability of MG-63 cells after cisplatin treatment in the presence of PP1. MG-63 cells were cultured with DMSO or PP1 (2, 5 μM) and then treated with cisplatin (20 μM) for 24 hr. Cell viability was measured using the WST-1 assay. The values are represented as a mean±s.d.m. (n=3). ** denotes p<0.05 by t-test. (g) Cell viability of MG-63 cells after cisplatin treatment in the presence of Compound C. MG-63 cells were cultured with DMSO or Compound C (5, 10 μM) and then treated with cisplatin (20 μM) for 24 hr. Cell viability was measured using the WST-1 assay. The values are represented as a mean±s.d.m. (n=3). ** denotes p<0.05 by t-test.
Immunoblotting. Cells were washed with PBS and lysed in RIPA Buffer (Pierce, Rockford, Ill.). The protein content was determined using a dye-binding microassay (Bio-Rad, Hercules, Calif.), and 10-50 μg protein per lane was electrophoresed on 4-12% SDS polyacrylamide gels. Proteins were blotted onto Hybond ECL membranes (Amersham Pharmacia Biotech, Piscataway, N.J.). Two protein ladders were used for molecular weight determination (GenDEPOT, Barker, Tex.). The blotted proteins were detected using an enhanced chemiluminescence detection system (iNtRON, Seoul, Korea). Data were quantified and analyzed with Image-J software.

N.N.[Cl][Pt][Cl] [cisplatin, Cis-Diamineplatinum(II) dichloride]
level of phosphorylated AMPK: increased | level of phosphorylated S6K (P70-S6Kinase): decreased | level of phosphorylated Src: increased | level of phosphorylated mTOR: decreased
